Measurements: US20220315624A1, “THIOSTREPTON ANALOGS AND METHODS OF MAKING AND USING SAME” (YALE UNIVERSITY, priority 2019, published 2022)
≈ marks a conversion by molar mass, not a printed value.

Legend:
E. coli ATCC 25922 [1] = assay: MIC broth microdilution; type: cell-based; settings: Escherichia coli, ATCC25922; E. coli ATCC 25922; CAMHB; read-out: MIC
Protocol: (§1) Twenty-four test agents were shipped to Micromyx and stored at −20° C. until assayed. The compounds were dissolved in 100% DMSO at 6.46 mg/mL prior to testing. Comparator drugs were supplied by Micromyx and were handled as described below:
(§2) The test organisms for the assay were recent clinical isolates or reference strains acquired from the American Type Culture Collection (ATCC; Manassas, Va.). Upon receipt, the isolates were streaked onto Trypticase Soy Agar II+5% sheep blood (TSAB). Colonies were harvested from the plates and a cell suspension was prepared in Trypticase Soy Broth containing cryoprotectant. Aliquots were then frozen at −80° C. Prior to the assay, the frozen seeds of all bacterial isolates to be tested were thawed and streaked for isolation onto TSAB (BD/BBL, Sparks, Md.; Lot No. 9011894), and were incubated overnight at 35° C.
(§3) The test medium for all isolates was cation-adjusted Mueller Hinton broth (CAMHB; BD/BBL; Lot No. 8190586). CAMHB (Cation Adjusted Mueller Hinton Broth) was supplemented with 3% (v/v) lysed horse blood (LHB; Hemostat, Dixon, Calif.; Lot No. 474990) for the testing of streptococci.
(§4) MIC values were determined using a broth microdilution method as recommended by CLSI. Automated liquid handlers (Multidrop 384, Labsystems, Helsinki, Finland; Biomek 2000 and Biomek F/X, Beckman Coulter, Fullerton Calif.) were used to conduct serial dilutions and make liquid transfers.
(§5) The wells of standard 96-well microdilution plates (Costar 3795, Corning Inc., Corning, N.Y.) were filled with 150 μL of the appropriate diluent in columns 2-12 on the Multidrop 384 (DMSO for the thiostrepton analogs, deionized H2O for vancomycin and ceftazidime). These plates were used to prepare the drug “mother plate” which provided the serial drug dilutions for the replicate “daughter plates”. The compounds (300 μL) were dispensed at 101× the highest concentration to be tested into the appropriate row of the “mother plate”. The Biomek 2000 was used to transfer 150 μL of each stock solution from the wells in Column 1 of the mother plate to make ten subsequent 2-fold serial dilutions. The wells of Column 12 contained no drug and served as the organism growth control wells. The daughter plates were loaded with 190 μL of test medium using the Multidrop 384.
(§6) The daughter plates were prepared on the Biomek F/X instrument which transferred […] of drug solution from each well of the mother plate to each corresponding well of each daughter plate in a single step. The wells of the daughter plates ultimately contained 190 μL of media, 2 μL of drug solution, and 10 μL of inoculum prepared as described below. The final concentration of DMSO (if used as a solvent) in the test well was 1%.
(§7) A standardized inoculum of each organism was prepared per CLSI methods. A suspension of organisms from a fresh plate was prepared in CAMHB to equal the turbidity of a 0.5 McFarland standard. The suspensions were diluted 1:20 in CAMHB, or in the case of streptococci CAMHB with LHB. The inoculum for each organism was dispensed into sterile reservoirs divided by length (Beckman Coulter), and the Biomek 2000 was used to inoculate the plates. Daughter plates were placed on the Biomek 2000 work surface reversed so that inoculation took place from low to high drug concentration. The Biomek 2000 delivered 10 μL of standardized inoculum into each well. These dilutions yielded a final cell concentration in the daughter plates of approximately 5.0×10^5 CFU/mL.
(§8) Plates were stacked 3 high, covered with a lid on the top plate, placed in plastic bags, and incubated at 35° C. for 16-20 hr for all organisms except streptococci which were incubated for 20-24 hr. Following incubation, the microplates were removed from the incubator and viewed from the bottom using a plate viewer. The MIC was read and recorded as the lowest concentration of drug that inhibited visible growth of the organism. […]

[2] = system: E. faecalis ATCC 29212 VSE; assay: MIC broth microdilution; type: cell-based; settings: Enterococcus faecalis, ATCC29212; E. faecalis ATCC 29212 VSE; CAMHB; read-out: MIC
Protocol: as §1, §2, §3, §4, §5, §6, §7, §8

E. faecalis MMX 486 VRE = assay: MIC broth microdilution; type: cell-based; settings: Enterococcus faecalis; E. faecalis MMX 486 VRE; CAMHB; read-out: MIC
Protocol: as §1, §2, §3, §4, §5, §6, §7, §8

E. faecium MMX 485 VRE = assay: MIC broth microdilution; type: cell-based; settings: Enterococcus faecium; E. faecium MMX 485 VRE; CAMHB; read-out: MIC
Protocol: as §1, §2, §3, §4, §5, §6, §7, §8

E. faecium MMX 708 VSE = assay: MIC broth microdilution; type: cell-based; settings: Enterococcus faecium, MMX708VSE; E. faecium MMX 708 VSE; CAMHB; read-out: MIC
Protocol: as §1, §2, §3, §4, §5, §6, §7, §8

[3] = system: S. aureus ATCC 29213 MSSA; assay: MIC broth microdilution; type: cell-based; settings: Staphylococcus aureus; S. aureus ATCC 29213 MSSA; CAMHB; read-out: MIC
Protocol: as §1, §2, §3, §4, §5, §6, §7, §8

S. aureus MMX 8088 MRSA = assay: MIC broth microdilution; type: cell-based; settings: Staphylococcus aureus; S. aureus MMX 8088 MRSA; CAMHB; read-out: MIC
Protocol: as §1, §2, §3, §4, §5, §6, §7, §8

[4] = system: S. pneumoniae ATCC 49619 PISP; assay: MIC broth microdilution; type: cell-based; settings: Streptococcus pneumoniae, ATCC49619, 20 h; S. pneumoniae ATCC 49619 PISP; CAMHB with 3% lysed horse blood; read-out: MIC
Protocol: as §1, §2, §3, §4, §5, §6, §7, §8

S. pyogenes ATCC 19615 = assay: MIC broth microdilution; type: cell-based; settings: Streptococcus pyogenes, ATCC19615, 20 h; S. pyogenes ATCC 19615; CAMHB with 3% lysed horse blood; read-out: MIC
Protocol: as §1, §2, §3, §4, §5, §6, §7, §8

[5] = system: S. aureus ATCC 29213 MSSA; settings: range in parentheses; cited from earlier work
E. coli ATCC 25922 [6] = settings: range in parentheses; cited from earlier work
[7] = Aqueous solubility analysis in MOPS buffer; type: physicochemical; settings: aqueous 10 mM MOPS buffer, thermodynamic from solid; after 24 hours in 10 mM aqueous MOPS buffer, pH 7.2
Protocol: A 2 dram vial was loaded with ˜0.5 mg of a thiostrepton derivative and suspended in ˜4 mL of aqueous 10 mM MOPS buffer (pKa 7.2). The suspension was stirred vigorously for 24 h to ensure equilibration, then filtered through a […] centrifuge filtration unit. A 3.0 mL aliquot was concentrated, and the dried residue was diluted with 0.30 mL of 1:1 1,4-dioxane/H2O (10× original concentration necessitated by detection limits). The total UV absorbance (200-300 nm) was measured in triplicate by UPLC runs with a photodiode array detector. A calibration curve for each compound was created using data points from 3 trials each of concentrations in 1:1 1,4-dioxane/H2O ranging from […]. These concentrations were plotted against their respective average absorbances. The experimental concentration of each compound was calculated by dividing the found μg/mL value by the residue concentration factor of 10 to yield the actual solubility value.

S. aureus isolates = assay: MIC broth microdilution, S. aureus isolates; type: cell-based; settings: Staphylococcus aureus; across MSSA and MRSA isolates; read-out: MIC values against S. aureus isolates
Protocol: as §1, §2, §3, §4, §5, §6, §7, §8

[8] = system: E. faecalis and E. faecium; assay: MIC broth microdilution, summary over enterococci; type: cell-based; settings: across the evaluated enterococci, VSE and VRE; read-out: MIC values against E. faecalis and E. faecium
Protocol: as §1, §2, §3, §4, §5, §6, §7, §8

[9] = system: S. pneumoniae and S. pyogenes isolates; assay: MIC broth microdilution, summary over streptococci; type: cell-based; settings: across evaluated streptococci; read-out: MIC values against S. pneumoniae and S. pyogenes isolates
Protocol: as §1, §2
The test medium for all isolates was cation-adjusted Mueller Hinton broth (CAMHB; BD/BBL; Lot No. 8190586). […]
MIC values were determined using a broth microdilution method as recommended by CLSI. […]
as §8, with “Following incubation, the microplates were removed from the incubator and viewed from the bottom using a plate viewer.” left out

[10] = Un-inoculated solubility control plate (drug precipitation); type: physicochemical; settings: at 64 μg/mL in CAMHB in LHB
Gram-positive cocci = assay: MIC broth microdilution, overall summary; type: cell-based; settings: summary of MIC testing
Protocol: as §1, §2, §3, §4, §5
The daughter plates were prepared on the Biomek F/X instrument which transferred […] of drug solution from each well of the mother plate to each corresponding well of each daughter plate in a single step. […]
as §8, with “Following incubation, the microplates were removed from the incubator and viewed from the bottom using a plate viewer.” left out

| Compound | MIC (E. coli ATCC 25922 [1]) | MIC [2] | MIC (E. faecalis MMX 486 VRE) | MIC (E. faecium MMX 485 VRE) | MIC (E. faecium MMX 708 VSE) | MIC [3] | MIC (S. aureus MMX 8088 MRSA) | MIC [4] | MIC (S. pyogenes ATCC 19615) | CLSI quality control range (MIC) [5] | CLSI quality control range (MIC) (E. coli ATCC 25922 [6]) | solubility at 24 h [7] | MIC (S. aureus isolates) | MIC [8] | MIC [9] | Precipitation in CAMHB in LHB [10] | Activity among the evaluated analogs / against evaluated Gram-positive cocci (summary in words) (Gram-positive cocci) |
| --- | --- | --- | --- | --- | --- | --- | --- | --- | --- | --- | --- | --- | --- | --- | --- | --- | --- |
| CC(C)(O/N=C(\C(=O)N[C@@H]1C(=O)N2C(C(=O)[O-])=C(C[n+]3ccccc3)CS[C@H]12)c1csc(N)n1)C(=O)O [Ceftazidime, reference compound] | 0.25 µg/mL (≈ 0.457 µM) | > 32 µg/mL | > 32 µg/mL | > 32 µg/mL | > 32 µg/mL | 8 µg/mL (≈ 14.6 µM) | > 32 µg/mL | 0.5 µg/mL (≈ 0.915 µM) | 0.12 µg/mL (≈ 0.22 µM) | 4 to 16 µg/mL | 0.06 to 0.5 µg/mL | – | – | – | – | – | – |
| C=C(NC(=O)c1csc(C2=N[C@@H]3c4csc(n4)[C@H]4NC(=O)c5csc(n5)[C@H]([C@](C)(O)[C@@H](C)O)NC(=O)C5CSC(=N5)/C(=C/C)NC(=O)[C@H]([C@@H](C)O)NC(=O)c5csc(n5)[C@]3(CC2)NC(=O)[C@H](C)NC(=O)C(=C)NC(=O)[C@H](C)NC(=O)[C@H]([C@@H](C)CC)N[C@@H]2C=Cc3c([C@H](C)O)cc(nc3[C@H]2O)C(=O)O[C@@H]4C)n1)C(=O)NC(=CNC(=O)c1cccc(/C=N/OC2O[C@H](CO)[C@@H](O)[C@H](O)[C@H]2O)c1)C(N)=O (some centres unmarked) [RJS-16] | > 64 µg/mL | 16 µg/mL (≈ 8.04 µM) | 16 µg/mL (≈ 8.04 µM) | 8 µg/mL (≈ 4.02 µM) | 16 µg/mL (≈ 8.04 µM) | 16 µg/mL (≈ 8.04 µM) | 16 µg/mL (≈ 8.04 µM) | 0.25 µg/mL (≈ 0.126 µM) | 0.25 µg/mL (≈ 0.126 µM) | – | – | 11 µg/mL (≈ 5.53 µM) | 16 µg/mL (≈ 8.04 µM) | 8 to 16 µg/mL (≈ 4.02 to 8.04 µM) | 0.25 µg/mL (≈ 0.126 µM) | distinct precipitation | least activity |
